Assays:
Format in all cases: in vivo
[1] = test system: barnyardgrass (Echinochloa crus-galli); assay: Test C
[2] = test system: dallisgrass (Paspalum dilatatum); assay: Test E pre-/postemergence/post directed; parameters: key: 0 is no effect; 100 is complete control
Procedure, shortened: (§1)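 Greenhouse pot-grown plants; compound in non-phytotoxic solvent with surfactant applied preemergence to soil within one day of planting, postemergence at two to four leaf stage (three to twenty cm), or post-directed to plant base and soil. Visual injury rated 13 to 21 days after application, 0 (none) to 100 (complete control).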

[3] = test system: bermudagrass (Cynodon dactylon); assay: Test E pre-/postemergence/post directed; parameters: key: 0 is no effect; 100 is complete control; conditions: PREEMERGENCE
Procedure, shortened: as §1

[4] = test system: surinam grass (Brachiaria decumbens); assay: Test E pre-/postemergence/post directed; parameters: key: 0 is no effect; 100 is complete control; conditions: PREEMERGENCE, Rate 250 g/ha
Procedure, shortened: as §1

[5] = test system: large crabgrass (Digitaria sanguinalis); assay: Test E pre-/postemergence/post directed; parameters: key: 0 is no effect; 100 is complete control; conditions: PREEMERGENCE
Procedure, shortened: as §1

[6] = test system: tall mallow (Malva sylvestris); assay: Test E pre-/postemergence/post directed; parameters: key: 0 is no effect; 100 is complete control; conditions: PREEMERGENCE
Procedure, shortened: as §1

[7] = test system: common ragweed (Ambrosia elatior); assay: Test E pre-/postemergence/post directed; parameters: key: 0 is no effect; 100 is complete control; conditions: PREEMERGENCE
Procedure, shortened: as §1

[8] = test system: sourgrass (Trichachne insularis); assay: Test E pre-/postemergence/post directed; parameters: key: 0 is no effect; 100 is complete control
Procedure, shortened: as §1

[9] = test system: common groundsel (Senecio vulgaris); assay: Test E pre-/postemergence/post directed; parameters: key: 0 is no effect; 100 is complete control; conditions: PREEMERGENCE
Procedure, shortened: as §1

[10] = test system: common purslane (Portulaca oleracea); assay: Test E pre-/postemergence/post directed; parameters: key: 0 is no effect; 100 is complete control
Procedure, shortened: as §1

[11] = test system: guineagrass (Panicum maximum); assay: Test E pre-/postemergence/post directed; parameters: key: 0 is no effect; 100 is complete control
Procedure, shortened: as §1

[12] = test system: goosegrass (Eleusine indica); assay: Test E pre-/postemergence/post directed; parameters: key: 0 is no effect; 100 is complete control
Procedure, shortened: as §1

corn (Zea mays) = assay: Test C; parameters: key: 0 was no effect; 100 was complete control
[13] = test system: surinam grass (Brachiaria decumbens); assay: Test C
[14] = test system: johnsongrass (Sorghum halepense); assay: Test C
[15] = test system: redroot pigweed (Amaranthus retroflexus); assay: Test C; parameters: key: 0 was no effect; 100 was complete control
soybean (Glycine max) = assay: Test C
[16] = test system: hairy beggarticks (Bidens pilosa); assay: Test C
[17] = test system: fall panicum (Panicum dichotomiflorum); assay: Test C; parameters: key: 0 was no effect; 100 was complete control

In the case of `Cc1cnc(-c2ccc(C(F)(F)F)cc2)nc1Cn1ccc(C(F)(F)F)n1` [compound 9], the “Plant response rating, Barnyardgrass” value ([1]; POSTEMERGENCE, Rate 35 g/ha) is reported as 10, the “Plant response rating, Barnyardgrass” value ([1]; POSTEMERGENCE, Rate 70 g/ha) is reported as 25 and the “Plant response rating, Barnyardgrass” value ([1]; POSTEMERGENCE, Rate 140 g/ha) is reported as 25. The “Plant response rating, Barnyardgrass” value ([1]; PREEMERGENCE, Rate 35 g/ha) was 10, the “Plant response rating, Barnyardgrass” value ([1]; PREEMERGENCE, Rate 70 g/ha) was 50 and the “Plant response rating, Barnyardgrass” value ([1]; PREEMERGENCE, Rate 140 g/ha) was 50. For the same compound, the “Plant response rating, Dallisgrass” value ([2]; POSTEMERGENCE, Rate 125 g/ha) was 10, the “Plant response rating, Dallisgrass” value ([2]; POSTEMERGENCE, Rate 250 g/ha) was 20 and the “Plant response rating, Dallisgrass” value ([2]; PREEMERGENCE, Rate 32 g/ha) was 85. The “Plant response rating, Dallisgrass” value ([2]; PREEMERGENCE, Rate 64 g/ha) was 100, the “Plant response rating, Dallisgrass” value ([2]; PREEMERGENCE, Rate 125 g/ha) was 100 and the “Plant response rating, Dallisgrass” value ([2]; PREEMERGENCE, Rate 250 g/ha) was 100. The “Plant response rating, Bermudagrass” value ([3]; Rate 125 g/ha) was 100, the “Plant response rating, Bermudagrass” value ([3]; Rate 250 g/ha) was 100 and the “Plant response rating, Surinam grass” value [4] was 100. For the same compound, the “Plant response rating, Large crabgrass” value ([5]; Rate 64 g/ha) was 100, the “Plant response rating, Large crabgrass” value ([5]; Rate 125 g/ha) was 100 and the “Plant response rating, Large crabgrass” value ([5]; Rate 250 g/ha) was 100. The “Plant response rating, Tall Mallow” value ([6]; Rate 32 g/ha) was 100, the “Plant response rating, Tall Mallow” value ([6]; Rate 64 g/ha) was 100 and the “Plant response rating, Tall Mallow” value ([6]; Rate 125 g/ha) was 100. The “Plant response rating, Tall Mallow” value ([6]; Rate 250 g/ha) was 100, the “Plant response rating, Com. ragweed” value ([7]; Rate 64 g/ha) was 100 and the “Plant response rating, Com. ragweed” value ([7]; Rate 250 g/ha) was 100. The “Plant response rating, Sourgrass” value ([8]; POSTEMERGENCE, Rate 125 g/ha) was 10, the “Plant response rating, Sourgrass” value ([8]; POSTEMERGENCE, Rate 250 g/ha) was 30 and the “Plant response rating, Sourgrass” value ([8]; PREEMERGENCE, Rate 32 g/ha) was 85. The “Plant response rating, Sourgrass” value ([8]; PREEMERGENCE, Rate 64 g/ha) was 100, the “Plant response rating, Sourgrass” value ([8]; PREEMERGENCE, Rate 125 g/ha) was 100 and the “Plant response rating, Sourgrass” value ([8]; PREEMERGENCE, Rate 250 g/ha) was 100. The “Plant response rating, Com. groundsel” value ([9]; Rate 64 g/ha) was 100, the “Plant response rating, Com. groundsel” value ([9]; Rate 125 g/ha) was 100 and the “Plant response rating, Com. groundsel” value ([9]; Rate 250 g/ha) was 100. The “Plant response rating, Com. purslane” value ([10]; POSTEMERGENCE, Rate 125 g/ha) was 80, the “Plant response rating, Com. purslane” value ([10]; POSTEMERGENCE, Rate 250 g/ha) was 80 and the “Plant response rating, Com. purslane” value ([10]; PREEMERGENCE, Rate 32 g/ha) was 100. For the same compound, the “Plant response rating, Com. purslane” value ([10]; PREEMERGENCE, Rate 64 g/ha) was 100, the “Plant response rating, Com. purslane” value ([10]; PREEMERGENCE, Rate 125 g/ha) was 100 and the “Plant response rating, Com. purslane” value ([10]; PREEMERGENCE, Rate 250 g/ha) was 100. The “Plant response rating, Guineagrass” value ([11]; POSTEMERGENCE, Rate 125 g/ha) was 35, the “Plant response rating, Guineagrass” value ([11]; POSTEMERGENCE, Rate 250 g/ha) was 35 and the “Plant response rating, Guineagrass” value ([11]; PREEMERGENCE, Rate 32 g/ha) was 20. For the same compound, the “Plant response rating, Guineagrass” value ([11]; PREEMERGENCE, Rate 64 g/ha) was 85, the “Plant response rating, Guineagrass” value ([11]; PREEMERGENCE, Rate 125 g/ha) was 90 and the “Plant response rating, Guineagrass” value ([11]; PREEMERGENCE, Rate 250 g/ha) was 100. For the same compound, the “Plant response rating, Goosegrass” value ([12]; POSTEMERGENCE, Rate 125 g/ha) was 5, the “Plant response rating, Goosegrass” value ([12]; POSTEMERGENCE, Rate 250 g/ha) was 10 and the “Plant response rating, Goosegrass” value ([12]; PREEMERGENCE, Rate 32 g/ha) was 90. For the same compound, the “Plant response rating, Goosegrass” value ([12]; PREEMERGENCE, Rate 64 g/ha) was 100, the “Plant response rating, Goosegrass” value ([12]; PREEMERGENCE, Rate 125 g/ha) was 100 and the “Plant response rating, Goosegrass” value ([12]; PREEMERGENCE, Rate 250 g/ha) was 100. For the same compound, the “Plant response rating, Corn” value (corn (Zea mays); POSTEMERGENCE, Rate 35 g/ha) was 10, the “Plant response rating, Corn” value (corn (Zea mays); POSTEMERGENCE, Rate 70 g/ha) was 15 and the “Plant response rating, Corn” value (corn (Zea mays); POSTEMERGENCE, Rate 140 g/ha) was 15. For the same compound, the “Plant response rating, Corn” value (corn (Zea mays); PREEMERGENCE, Rate 35 g/ha) was 0, the “Plant response rating, Corn” value (corn (Zea mays); PREEMERGENCE, Rate 70 g/ha) was 5 and the “Plant response rating, Corn” value (corn (Zea mays); PREEMERGENCE, Rate 140 g/ha) was 10. The “Plant response rating, Surinam grass” value ([13]; POSTEMERGENCE, Rate 35 g/ha) was 5, the “Plant response rating, Surinam grass” value ([13]; POSTEMERGENCE, Rate 70 g/ha) was 5 and the “Plant response rating, Surinam grass” value ([13]; POSTEMERGENCE, Rate 140 g/ha) was 20. The “Plant response rating, Surinam grass” value ([13]; PREEMERGENCE, Rate 35 g/ha) was 35, the “Plant response rating, Surinam grass” value ([13]; PREEMERGENCE, Rate 70 g/ha) was 80 and the “Plant response rating, Surinam grass” value ([13]; PREEMERGENCE, Rate 140 g/ha) was 90. The “Plant response rating, Johnsongrass” value ([14]; POSTEMERGENCE, Rate 35 g/ha) was 10, the “Plant response rating, Johnsongrass” value ([14]; POSTEMERGENCE, Rate 140 g/ha) was 50 and the “Plant response rating, Johnsongrass” value ([14]; PREEMERGENCE, Rate 35 g/ha) was 65. For the same compound, the “Plant response rating, Johnsongrass” value ([14]; PREEMERGENCE, Rate 70 g/ha) was 85, the “Plant response rating, Johnsongrass” value ([14]; PREEMERGENCE, Rate 140 g/ha) was 95 and the “Plant response rating, Redroot pigweed” value ([15]; POSTEMERGENCE, Rate 35 g/ha) was 60. For the same compound, the “Plant response rating, Redroot pigweed” value ([15]; POSTEMERGENCE, Rate 70 g/ha) was 70, the “Plant response rating, Redroot pigweed” value ([15]; PREEMERGENCE, Rate 35 g/ha) was 100 and the “Plant response rating, Redroot pigweed” value ([15]; PREEMERGENCE, Rate 70 g/ha) was 100. The “Plant response rating, Redroot pigweed” value ([15]; PREEMERGENCE, Rate 140 g/ha) was 100, the “Plant response rating, Soybean” value (soybean (Glycine max); POSTEMERGENCE, Rate 35 g/ha) was 40 and the “Plant response rating, Soybean” value (soybean (Glycine max); POSTEMERGENCE, Rate 70 g/ha) was 50. For the same compound, the “Plant response rating, Soybean” value (soybean (Glycine max); POSTEMERGENCE, Rate 140 g/ha) was 50, the “Plant response rating, Soybean” value (soybean (Glycine max); PREEMERGENCE, Rate 35 g/ha) was 20 and the “Plant response rating, Soybean” value (soybean (Glycine max); PREEMERGENCE, Rate 70 g/ha) was 20. For the same compound, the “Plant response rating, Soybean” value (soybean (Glycine max); PREEMERGENCE, Rate 140 g/ha) was 25, the “Plant response rating, H. beggarticks” value ([16]; POSTEMERGENCE, Rate 35 g/ha) was 65 and the “Plant response rating, H. beggarticks” value ([16]; POSTEMERGENCE, Rate 70 g/ha) was 70. For the same compound, the “Plant response rating, H. beggarticks” value ([16]; POSTEMERGENCE, Rate 140 g/ha) was 80, the “Plant response rating, H. beggarticks” value ([16]; PREEMERGENCE, Rate 35 g/ha) was 85 and the “Plant response rating, H. beggarticks” value ([16]; PREEMERGENCE, Rate 70 g/ha) was 85. The “Plant response rating, H. beggarticks” value ([16]; PREEMERGENCE, Rate 140 g/ha) was 85, the “Plant response rating, Fall panicum” value ([17]; POSTEMERGENCE, Rate 35 g/ha) was 5 and the “Plant response rating, Fall panicum” value ([17]; POSTEMERGENCE, Rate 70 g/ha) was 20. For the same compound, the “Plant response rating, Fall panicum” value ([17]; POSTEMERGENCE, Rate 140 g/ha) was 30, the “Plant response rating, Fall panicum” value ([17]; PREEMERGENCE, Rate 35 g/ha) was 85 and the “Plant response rating, Fall panicum” value ([17]; PREEMERGENCE, Rate 70 g/ha) was 90. For the same compound, the “Plant response rating, Fall panicum” value ([17]; PREEMERGENCE, Rate 140 g/ha) was 100.

Reference: patent US6525001B1, “Substituted pyrimidine and pyridine herbicides” (Mid-American Commercialization Corporation, priority 1997, dated 2003)
